{"source": "paper PMC5719408", "about": "“Multivalent cross-linking of actin filaments and microtubules through the microtubule-associated protein Tau” (Nature Communications, 2017)", "key": {"Tau": {"test_system": "Tau", "assay": "Binding of cofilin to Tau (HSQC)", "set-up": "species or system human", "conditions": "15N-Tau/F-actin 1:1.5, 10-fold excess of cofilin", "procedure": "In order to gain insight into how Tau regulates the polymerization and structure of F-actin, we sought to obtain information about the Tau-binding site on F-actin. […] One of these binding partners is cofilin, a 21 kDa eukaryotic protein, which binds to F-actin with a K d < 0.05 µM[33] and results in disassembly of F-actin[34], [35]. […] To test if the binding site of Tau on F-actin overlaps with that of cofilin, we added a 10-fold excess of cofilin to a solution containing ^15N-labeled Tau and 1.5-fold excess (with respect to Tau) of F-actin. For the resulting mixture, a ^1H-^15N HSQC spectrum was recorded. […] Subsequently, we repeated the actin/Tau co-sedimentation assay in the presence of cofilin.\nHuman Tau (2N4R) was expressed in the E. coli strain BL21 (DE3) (MERCK Millipore) using the vector pNG2 as described. The bacterial pellet was resuspended in lysis buffer (50 mM Mes, 500 mM NaCl, 1 mM MgCl2, 1 mM EGTA, 5 mM DTT, pH 6.8) and supplemented with a protease inhibitor mixture. Cells were disrupted using a French pressure cell and subsequently boiled for 20 min. […]\nFor HSQC-based competition experiments, 20 μM of ^15N-labeled Tau were mixed with 30 μM F-actin in NMR buffer supplemented with 0.2 mM ATP and 0.2 mM CaCl2 (sample 2). […] Competition was monitored by reading out the variation in signal broadening in 2D ^1H-^15N HSQC spectra of Tau."}, "F-actin [1]": {"test_system": "F-actin", "assay": "Protein co-sedimentation / actin bundling (differential centrifugation, SDS gel)", "assay_type": "biochemical, human", "conditions": "molar ratio 1.5:1:10"}, "F-actin [2]": {"molecular_target": "F-actin", "conditions": "read-out: Kd of cofilin for F-actin; cited from earlier work", "procedure": "In order to gain insight into how Tau regulates the polymerization and structure of F-actin, we sought to obtain information about the Tau-binding site on F-actin. […] One of these binding partners is cofilin, a 21 kDa eukaryotic protein, which binds to F-actin with a K d < 0.05 µM[33] and results in disassembly of F-actin[34], [35]."}, "F-actin [3]": {"test_system": "F-actin", "assay": "Transfer NOE (2D NOESY) of Tau peptides with F-actin", "assay_type": "binding, human", "conditions": "27 μM F-actin, 800 μM peptide, NMR buffer pH 6.8 with 0.2 mM ATP and 0.2 mM CaCl2, 278 K", "text": "Instead, short hydrophobic Tau segments, which are separated from each other by flexible residues, bind dynamically to actin’s hydrophobic pocket (Fig. 2). […] NMR Nuclear overhauser effect (NOE) measurements that are sensitive for three-dimensional structure were subsequently performed. […] This approach is called transfer NOE and has been widely used to determine the structure of small ligands in complex with high molecular weight binding partners.\nTwo-dimensional NOESY experiments with five different mixing times ranging from 50 up to 250 ms were recorded for Tau(254–290) in the presence of F-actin. […] The NOE peaks, which were observed only in the presence of F-actin, provide experimental restraints for the structure of Tau(254–290) in complex with F-actin.\n(§1) The sample was then dialyzed against General Actin Buffer (GAB; 5 mM TrisHCl pH 8.0, 0.2 mM CaCl2, 0.2 mM ATP, 0.5 mM DTT) or NMR buffer (50 mM NaH2PO4/Na2HPO4 pH 6.8, 10 mM NaCl, 1 mM DTT, 10% (v/v) D2O) to be used for electron microscopy or NMR experiments, respectively. In case of actin, lyophilized actin was reconstituted to 10 mg ml^−1 by adding 100 μl of distilled water to be in the following buffer: GAB with 5% (w/v) sucrose and 1% (w/v) dextran. Subsequently, the sample was spun at 18,400 × g for 15 min, the supernatant was kept, and actin was polymerized by incubating 0.4 mg ml^−1 G-actin in GAB and supplemented with polymerization buffer (1/10th the volume; 100 mM Tris HCl pH 7.5, 20 mM MgCl2, 500 mM KCl, 10 mM ATP) for 1 h at room temperature. Afterwards, the sample was centrifuged at 100,000 × g during 1 h at 4 °C. Filaments were collected at the bottom of the ultracentrifuge tube. The pellet was then resuspended in GAB or NMR Buffer as required.\nNMR spectra were acquired on Bruker Avance800 and 900 MHz NMR spectrometers at 278 K to reduce solvent exchange. 2D ^1H-^15N HSQC spectra consisted of 64 scans, spectral windows of 12 ppm in the proton and 25 ppm in the nitrogen dimension. 2D NOESY experiments were acquired using 88 scans, 12 ppm spectral width and a time domain of 512 and 2048 points in the first and second dimension, respectively. To generate buildup curves, mixing times of 50, 80, 100, 150, and 250 ms were used.\nFor NOESY experiments, 27 μM of F-actin were mixed with 800 μM of Tau peptide in NMR buffer supplemented with 0.2 mM ATP and 0.2 mM CaCl2. A reference experiment was performed in similar conditions only with 800 μM peptide. For resonance assignment, a 2D TOCSY experiment with a mixing time of 75 ms was performed. All data were processed using NMRPipe[76] and analyzed using Sparky[77]."}, "F-actin [4]": {"test_system": "F-actin", "assay": "Electron microscopy of actin bundles", "assay_type": "biochemical, human", "conditions": "uranyl acetate stain, room temperature", "procedure": "The ability of Tau to bundle F-actin was studied using electron microscopy (EM). The diameter of single actin filaments was approximately 7 nm, in agreement with previous studies, [30]. […] Actin bundles ranged between 20 and 150 nm in diameter. Next, Tau/F-actin co-sedimentation was performed. The same sample, which was used for EM, was exposed to two sequential steps of centrifugation, in which single-actin filaments and actin bundles were collected separately. Subsequently, aliquots from supernatant (SN), filament (PF), and bundle (PB) fractions were loaded in a 4–20% gradient gel (Fig. 1c). […] In addition, ~8% of Tau molecules were bound to single filaments, while ~29% of Tau was found together with actin bundles.\nThe sample was then dialyzed against General Actin Buffer (GAB; 5 mM TrisHCl pH 8.0, 0.2 mM CaCl2, 0.2 mM ATP, 0.5 mM DTT) or NMR buffer (50 mM NaH2PO4/Na2HPO4 pH 6.8, 10 mM NaCl, 1 mM DTT, 10% (v/v) D2O) to be used for electron microscopy or NMR experiments, respectively. […]\nSamples were bound to a glow discharged carbon foil covered copper grid. […] The samples were evaluated at room temperature using a CM 120 transmission electron microscope (FEI, Eindhoven, and The Netherlands) and a TemCam F416 CMOS camera (TVIPS, Gauting, Germany)."}, "F-actin [5]": {"test_system": "F-actin", "assay": "Protein co-sedimentation / actin bundling (differential centrifugation, SDS gel)", "assay_type": "biochemical, human", "conditions": "for bundling of F-actin: co-sedimentation, F-actin with Tau (1:1) or Tau peptides (1:10, Tau(254–268) 1:30), room temperature 30 min", "procedure": "The ability of Tau to bundle F-actin was studied using electron microscopy (EM). […] Next, Tau/F-actin co-sedimentation was performed. The same sample, which was used for EM, was exposed to two sequential steps of centrifugation, in which single-actin filaments and actin bundles were collected separately. Subsequently, aliquots from supernatant (SN), filament (PF), and bundle (PB) fractions were loaded in a 4–20% gradient gel (Fig. 1c).\nas §1\nMixtures of F-actin with Tau (1:1) or Tau peptides (1:10 molar ratio) were incubated at room temperature for 30 min. In case of the shorter peptide Tau(254–268), a 1:30 ratio was used. Centrifugation was performed in two steps. First, a spin rate of 5000 × g was used during 15 min to collect bundles of F-actin (PB) at the bottom of the tube. Secondly, the remaining sample was centrifuged at 100,000 × g during 1 h collecting actin filaments (PF). The final supernatant (SN) was also kept for later usage. Pellets were resuspended in 80 μl of GAB. A volume of 25 μl of sample were taken for EM while the remaining 55 μl were loaded in a 4–20% gradient SDS gel, which was colored with […] and denatured with SDS and heat."}, "F-actin [6]": {"test_system": "F-actin", "assay": "Titration of F-actin into 15N-Tau, two-state Bloch-McConnell fit (peer review file)", "assay_type": "binding, human", "conditions": "grid-search pushed to the edge of the parameter space, fits were not good", "text": "(4 pictures or pasted objects on this page, not shown here)"}, "NBD-labeled F-actin": {"molecular_target": "T1, NBD-labeled F-actin (Oryctolagus cuniculus, UniProt P68135)", "T1 construct": "NBD-conjugated actin from α-skeletal muscle was bought from Hypermol; purchased Hypermol (Bielefeld, Germany); host or cells: α-skeletal muscle (tissue-derived (so in the source))", "assay": "F-actin binding assay (NBD fluorescence change)", "conditions": "25 °C", "experimental": "In order to gain insight into the affinity of the Tau/F-actin-interaction, the change in fluorescence of 7-chloro-4-nitrobenz-2-oxa-1,3-diazole (NBD)-labeled F-actin upon addition of Tau was followed[31]. 0.2 μM of NBD-labeled and phalloidin-stabilized F-actin were mixed with increasing amounts of Tau (Fig. 1d and Supplementary Fig. 1).\nNBD-conjugated actin from α-skeletal muscle was bought from Hypermol (Bielefeld, Germany). In this experiment, 7-chloro-4-nitrobenz-2-oxa-1,3-diazole (NBD)-labeled G-actin was polymerized starting from 0.4 mg ml^−1 of the conjugated actin supplemented with 10-fold excess of phalloidin (catalog no. P2141, Sigma-Aldrich) to provide stable filaments. […] The change of fluorescence intensity from NBD was followed in a Cary Eclipse fluorescence spectrophotometer (Agilent Technologies, Inc.). […] As reported by Hertzog, M. et al.[31] the normalized decrease in fluorescence (equation 1) was analyzed and fitted by using equation 2.1 E=F-F0/Fmax-F0 2 E=1/2C+1/2Z-1/2C+Z^2-4Z with Z=[partner]/[F-actin]andC=1+Kd/[F-actin]\nAffinity of Tau and Tau fragments for binding to NBD-labeled F-actin. (a) Change of NBD fluorescence upon addition of increasing concentrations of Tau and Tau fragments. […]\n(b) Bar diagram showing Kd values, which were determined based on the quenching effect of Tau/Tau fragments on the fluorescent properties of NBD-labeled F-actin. […]"}, "F-actin [7]": {"molecular_target": "F-actin", "conditions": "phosphate buffer; read-out: Kd of Tau/F-actin, previously reported; cited from earlier work", "procedure": "0.2 μM of NBD-labeled and phalloidin-stabilized F-actin were mixed with increasing amounts of Tau (Fig. 1d and Supplementary Fig. 1). […] Other stoichiometries, however, cannot be excluded. The derived dissociation constant is lower than a previously reported value of 241 ± 43 nM[7] ..."}, "F-actin [8]": {"test_system": "F-actin", "assay": "Saturation transfer difference (STD) NMR with F-actin", "assay_type": "binding, human", "conditions": "compared with wild-type Tau(254–290)", "procedure": "We therefore prepared a mutant version of Tau(254–290), in which L266 was replaced by a glutamate, i.e., Tau(254–290)-L266E. We then used saturation transfer difference (STD)[49] experiments to probe the influence of the mutation on binding of Tau(254–290) to F-actin.\nas §1"}}, "note": "Where two headings read alike, the source gives them in different places."}
{"substance": "cofilin: human cofilin (catalog no. CF01, Cytoskeleton, Inc.), 21 kDa eukaryotic actin-binding protein", "values": [{"measurement": "binding of cofilin to Tau", "setting": "Tau", "value": "does not bind to Tau"}, {"measurement": "disassembly of actin filaments by cofilin", "setting": "F-actin [1]; F-actin + Tau + cofilin", "value": "actin filaments were not disassembled by cofilin"}, {"measurement": "effect of cofilin on Tau co-sedimentation with F-actin", "setting": "F-actin [1]", "value": "decreased the amount of Tau that co-sedimented with F-actin"}, {"measurement": "Kd", "setting": "F-actin [2]", "value": "< 50", "unit": "nM"}]}
{"substance": "Tau(254–290): synthetic Tau peptide, acetyl and amide protection groups at the N- and C terminus", "values": [{"measurement": "transfer NOE cross-peaks in presence of F-actin", "setting": "F-actin [3]", "value": "additional NOE cross-peaks were observed"}, {"measurement": "bundling of F-actin (electron microscopy)", "setting": "F-actin [4]", "value": "bundles filaments"}]}
{"substance": "Tau(292–319): Tau peptide comprising the residues of repeat R2 and R3", "values": [{"measurement": "transfer NOE cross-peaks in presence of F-actin", "setting": "F-actin [3]", "value": "revealed NOEs specific for the Tau(292–319)/F-actin complex"}, {"measurement": "bundling of F-actin", "setting": "F-actin [5]", "value": "promotes bundling of actin filaments"}]}
{"substance": "Tau(254–284): Tau peptide, residues 254–284", "values": [{"measurement": "bundling of F-actin", "setting": "F-actin [5]", "value": "promoted actin bundles"}]}
{"substance": "K18: artificial fragment of Tau which comprises all four repeats (residues Gln244–Glu372 plus initial Met243)", "values": [{"measurement": "bundling of F-actin", "setting": "F-actin [5]", "value": "capable of bundling F-actin"}]}
{"substance": "Tau: full-length human Tau (2N4R), expressed in E. coli", "values": [{"measurement": "kon, local two-state NMR fit (residues I260, L266, G287/V287)", "setting": "F-actin [6]", "value": "~10^7 M-1s-1"}, {"measurement": "bundling of F-actin (electron microscopy)", "setting": "F-actin [4]", "value": "caused bundling of F-actin"}, {"measurement": "Kd", "setting": "NBD-labeled F-actin; NBD-labeled, phalloidin-stabilized F-actin (α-skeletal muscle actin), 0.2 μM (Results) / 0.25 µM (Methods) F-actin, GAB (5 mM TrisHCl pH 8.0, 0.2 mM CaCl2, 0.2 mM ATP, 0.5 mM DTT), single-binding site fit, s.d. from three experiments, read-out: dissociation constant (Kd) of Tau or Tau fragment for F-actin", "value": "60 ± 10", "unit": "nM"}, {"measurement": "Tau found together with actin bundles (PB)", "setting": "F-actin [5]; F-actin:Tau 1:1, room temperature 30 min, pellet of 5000 × g, 15 min", "value": "~ 29%"}, {"measurement": "Tau bound to single filaments (PF)", "setting": "F-actin [5]; F-actin:Tau 1:1, room temperature 30 min, pellet of 100,000 × g, 1 h", "value": "~ 8%"}, {"measurement": "Tau remaining in supernatant (SN)", "setting": "F-actin [5]; F-actin:Tau 1:1, room temperature 30 min, quantification of gel band intensity, supernatant after 100,000 × g", "value": "~ 63%"}, {"measurement": "bundling of F-actin", "setting": "F-actin [5]", "value": "bundles actin filaments"}, {"measurement": "Kd", "setting": "F-actin [7]", "value": "241 ± 43", "unit": "nM"}]}
{"substance": "Tau(254–290)-L266E: mutant version of Tau(254–290), in which L266 was replaced by a glutamate (Ac-KNVKSKIGSTENEKHQPGGGKVQIINKKLDLSNVQSK-NH2)", "values": [{"measurement": "STD signal relative to wild-type peptide", "setting": "F-actin [8]", "value": "decreased STD signal"}, {"measurement": "transfer NOE cross-peaks in presence of F-actin", "setting": "F-actin [3]", "value": "no additional cross-peaks were observed"}, {"measurement": "affinity for F-actin relative to parent (in words)", "setting": "NBD-labeled F-actin; NBD-labeled F-actin, GAB, values only in Supplementary Fig. 1b bar diagram", "value": "decrease in affinity"}, {"measurement": "bundling of F-actin", "setting": "F-actin [5]", "value": "less efficient in promoting F-actin bundling"}]}
{"substance": "Tau(254–268): contains the residues which form the helix in the N-terminal half of Tau(254–290) (Ac-KNVKSKIGSTENLKH-NH2)", "values": [{"measurement": "transfer NOE cross-peaks in presence of F-actin", "setting": "F-actin [3]", "value": "folds into an α-helix (residues 259–265) in complex with F-actin"}, {"measurement": "bundling of F-actin", "setting": "F-actin [5]", "value": "not able to bundle F-actin"}]}
